Measured values taken from patent US10047122B2, “Peptide and peptide mimetic binding antagonists of polo-like kinase 1 polo box domain and methods of use” (The United States of America, as represented by the …, priority 2013, dated 2018).
Numbered stars: 1 amine (or outer) side, 2 acyl side, 3 side chain; on linkers, the order of the positions; unused ones are H or OH. Square brackets hold non-standard residues; d marks the D form. Peptide text beside a SMILES is read from it. X1 = C[C@@H](OP(=O)(OCOC(=O)C(C)(C)C)OCOC(=O)C(C)(C)C)[C@H](N[*:1])C(=O)[*:2]; X2 = C[C@@H](CP(=O)(OCOC(=O)C(C)(C)C)OCOC(=O)C(C)(C)C)[C@H](N[*:1])C(=O)[*:2]; His(π-(CH2)8Ph) = N[C@@H](Cc1cncn1CCCCCCCCc1ccccc1)C(=O)O

How the values were obtained:
[1] = test system: Porcine Liver Esterase; experiment: PLE hydrolysis experiment (enzymatic deprotection of POM-protected peptides); type: in vitro ADME; settings: pig, 200 μM peptide, pH 7.4, 37° C.
Method: Hydrolysis assays were run on five POM-protected peptides (see below):
(§1) There are three types of hydrolysis experiment performed in these peptides.
Type 1: 200 μM peptide with Porcine Liver Esterase (58 units, according the protocol presented in Srivastva, D. N.; Farquhar, D. Bioorg. Chem. 1984, 12, 118).
PLE hydrolysis experiment. 0.05M potassium phosphate buffer (pH 7.4) was placed in centrifuge tube. A solution of selected peptide in methanol was added to the buffer. Final concentration of the peptide was 200 μM, MeOH was less than 1% in solution. Take 1 mL of the above solution, then added Pig liver esterase (57.6 units). The reaction mixture was then incubated at 37° C. by shaking. At different time point, certain amount (50 μL) of reaction mixture was taken and placed in a separate Eppendorf tube containing 1 equiv. volume MeCN (50 μL). After work-up, the hydrolysis product was monitored by LC-MS.

[2] = target: T1, Plk1 PBD (cellular lysates expressing HA-EGFP-Plk1) (Homo sapiens, UniProt P53350); experiment: ELISA-based PBD-binding inhibition assay; settings: immobilized biotinylated p-T78 peptide, lysates with full-length Plk1
T1 construct: cell lysates containing full-length Plk1 were incubated with test peptides; expressed in transfected cells; host or cells: 293A cells infected with adenovirus expressing HA-EGFP-Plk1, arrested with nocodazole
T1 sequence (P53350 whole entry): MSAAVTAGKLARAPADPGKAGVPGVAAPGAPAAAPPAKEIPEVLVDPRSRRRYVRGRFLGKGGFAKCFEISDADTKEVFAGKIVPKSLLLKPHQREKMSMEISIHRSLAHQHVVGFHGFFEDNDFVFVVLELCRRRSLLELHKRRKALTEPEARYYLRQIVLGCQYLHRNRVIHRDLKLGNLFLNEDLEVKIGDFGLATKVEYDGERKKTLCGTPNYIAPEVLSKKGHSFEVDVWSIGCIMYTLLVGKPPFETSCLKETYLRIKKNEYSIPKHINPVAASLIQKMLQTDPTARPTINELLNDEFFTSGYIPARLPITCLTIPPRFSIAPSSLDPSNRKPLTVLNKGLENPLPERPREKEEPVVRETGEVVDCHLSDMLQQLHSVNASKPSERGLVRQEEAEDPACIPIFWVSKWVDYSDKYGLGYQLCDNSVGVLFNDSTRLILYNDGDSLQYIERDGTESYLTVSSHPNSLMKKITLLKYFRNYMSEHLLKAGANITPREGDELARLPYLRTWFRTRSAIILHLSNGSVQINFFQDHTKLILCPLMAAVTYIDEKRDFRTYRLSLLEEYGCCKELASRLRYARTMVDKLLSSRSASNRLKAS
Method: An ELISA-based PBD-binding inhibition assay was carried out using an immobilized biotinylated 9-mer p-T78 peptide {Biotin-C—(CH2)6-(CH2)6-DPPLHSpTAI-NH2} and the cellular lysates expressing HA-EGFP-Plk1.
A biotinylated p-T78 peptide was first diluted with 1× coating solution (KPL Inc., Gaithersburg, Md.) to the final concentration of 0.3 μM, and then 100 μl of the resulting solution was immobilized onto a 96-well streptavidin-coated plate (Nalgene Nunc, Rochester, N.Y.). The wells were washed once with PBS plus 0.05% Tween20 (PBST), and incubated with 200 μl of PBS plus 1% BSA (blocking buffer) for 1 h to prevent non-specific binding. […] Following the incubation, ELISA plates were washed 4 times with PBST. To detect bound HA-EGFP-Plk1, the plates were probed for 2 h with 100 μl/well of anti-HA antibody at a concentration of 0.5 μg/ml in blocking buffer and then washed 5 times. The plates were further probed for 1 h with 100 μl/well of HRP-conjugated secondary antibody (GE Healthcare, Piscataway, N.J.) at a 1:1,000 dilution in blocking buffer. The plates were washed 5 times with PBST and incubated with 100 μl/well of 3,3′,5,5′-tetramethylbenzidine (TMB) solution (Sigma, St. Louis, Mo.) as a substrate until a desired absorbance was reached. […] The optical density (O.D.) was measured at 450 nm by using an ELISA plate reader (Molecular Devices, Sunnyvale, Calif.).

[3] = Cell lysate hydrolysis experiment; type: in vitro ADME; settings: 1 μM peptide in cell lysate, 37° C.; read-out: Half-life of peptides in cell lysate
Method: as §1
Type 3: 1 μM peptide in cell lysate.
Cell lysate hydrolysis experiment. Cell lysate was placed in 96-well plate. A solution of selected peptide in DMSO was added to the cell lysate. Final concentration of the peptide was 1 μM, DMSO was less than 1% in solution. The reaction mixture was then incubated at 37° C. by shaking. At different time point, 1 equiv. by volume of MeCN was added to well to quench the reaction. After work-up, the hydrolysis product was monitored by LC-MS.

[4] = Culture medium hydrolysis experiment; type: in vitro ADME; settings: for half-life at 1 μM: 1 μM peptide in culture medium
Method: as §1
Type 2: 1 μM peptide in culture medium and 200 μM peptide in culture medium.
Culture medium hydrolysis experiment. Culture medium was placed in centrifuge tube. A solution of selected peptide in methanol was added to the culture medium. Final concentration of the peptide was 1 μM or 200 μM, MeOH was less than 1% in solution. The reaction mixture was then incubated at 37° C. by shaking. At different time point, certain amount (50 μL) of reaction mixture was taken and placed in a separate Eppendorf tube containing 1 equiv. volume MeCN (50 μL). After work-up, the hydrolysis product was monitored by LC-MS.

[5] = test system: HeLa cells; type: cell-based
Method: Cell culture, analysis of the cell proliferation and aberrant mitotic population, and indirect immunofluorescence microscopy: HeLa cervical carcinoma cell line CCL2, 293A and 293T cells were cultured as recommended by the American Type Culture Collection (Manassas, Va.), were cultured as recommended by American Type Culture Collection (Manassas, Va.). To prepare mitotic 293A cells expressing HA-EGFP-Plk1, cells were infected with adenovirus expressing HA-EGFP-Plk1 and arrested with 200 ng/ml of nocodazole for 16 h. To analyze the effect of the indicated compounds in cultured cells, logarithmically growing HeLa cells were treated with 200 μM of the indicated compounds for 24 h (a sufficient amount of time to enrich mitotically-arrested cells), treated with Hoechst 33342 for […], and then fixed with 4% paraformaldehyde.
Cell-based growth inhibition assays were performed.

[6] = 37° C., read-out: Half-life of peptides in culture medium

SMILES | half-life at 200 μM [1] [h] | IC50 [2] [µM] | half-life at 1 μM [3] [h] | half-life at 1 μM [4, 6] [h] | hydrolysis product detected after 24 h incubation ([4]; 200 μM peptide in culture medium, 24 h) | IC50 [5] [µM] | half-life at 200 μM ([4]; 200 μM peptide in culture medium, 37° C., read-out: Half-life of peptides in culture medium) [h]
CC(=O)N1CCC[C@H]1C(=O)N[C@@H](CC(C)C)C(=O)N[C@@H](Cc1c[nH]cn1)C(=O)N[C@@H](CO)C(=O)N[C@H](C(N)=O)[C@@H](C)CP(=O)(OCOC(=O)C(C)(C)C)OCOC(=O)C(C)(C)C [Compound A3] (Ac-PLHS[X2]-NH2) | 0.085 | – | – | – | – | – | –
CC(=O)N1CCC[C@H]1C(=O)N[C@@H](CC(C)C)C(=O)N[C@@H](Cc1c[n+](CCO)cn1CCCCCCCCc1ccccc1)C(=O)N[C@@H](CO)C(=O)N[C@H](C(N)=O)[C@@H](C)OP(=O)(O)OCOC(=O)C(C)(C)C [Compound A10] | 4 | 0.0093 | 1.48 | 6.87 | ^a<5% hydrolysis product could be detected after 24 h incubation. | 57 | –
CC(=O)N1CCC[C@H]1C(=O)N[C@@H](CC(C)C)C(=O)N[C@@H](Cc1cncn1CCCCCCCCc1ccccc1)C(=O)N[C@@H](CO)C(=O)N[C@H](C(N)=O)[C@@H](C)OP(=O)(OCOC(=O)C(C)(C)C)OCOC(=O)C(C)(C)C [Compound A5] (Ac-PL[His(π-(CH2)8Ph)]S[X1]-NH2) | 1.9 | – | 2.32 | 0.537 | – | – | 7.43
CC(=O)N1CCC[C@H]1C(=O)N[C@@H](CC(C)C)C(=O)N[C@@H](Cc1c[nH]cn1)C(=O)N[C@@H](CO)C(=O)N[C@H](C(N)=O)[C@@H](C)OP(=O)(OCOC(=O)C(C)(C)C)OCOC(=O)C(C)(C)C [Compound A1, Ac-Pro-Leu-His-Ser-Thr(PO2POM2)-amide] (Ac-PLHS[X1]-NH2) | 0.113 | – | – | – | – | – | –
